The values below come from US20120316161A1, “NOVEL ANTIVIRAL COMPOUNDS” (KATHOLIEKE UNIVERSITEIT LEUVEN, priority 2009, published 2012).

Like-named read-outs stand apart in the source and are kept apart here.

Data set [1] has as its target T1, LEDGF-integrase interaction (His6-tagged HIV-1 integrase, flag-LEDGF/p75) (Human immunodeficiency virus type 1 group M subtype B, UniProt P04585).
T1 construct: His6-tagged HIV-1 integrase; made in house
Put plainly: AlphaScreen assay of LEDGF-integrase interaction inhibition. In kind it is binding. To be noted: compound at 100 μM. As to the method: The AlphaScreen assay was performed according to the manufacturer's protocol (Perkin Elmer, Benelux). Reactions were performed in 25 μl final volume in 384-well Optiwell™ microtiter plates (Perkin Elmer). The reaction buffer contained 25 mM Tris-HCl (pH 7.4), 150 mM NaCl, 1 mM MgCl2, 0.01% (v/v) Tween-20 and 0.1% (w/v) bovine serum albumin. His6-tagged integrase (300 nM final concentration) was incubated with the compounds for 30 min at 4° C. The compounds were added at varying concentrations spanning a wide range from 0.1 up to 100 μM. Afterwards 100 nM flag-LEDGF/p75 was added and incubation was prolonged for an additional hour at 4° C. Subsequently 5 μl of Ni-chelate—coated acceptor beads and 5 μl anti-flag donor beads were added to a final concentration of 20 μg/ml of both beads. Proteins and beads were incubated for 1 h at 30° C. in order to allow association to occur. Exposure of the reaction to direct light was omitted as much as possible and the emission of light from the acceptor beads was measured in the EnVision plate reader (Perkin Elmer, Benelux) and analyzed using the EnVision manager software. IN/DNA binding was analyzed in a similar setting using His6-tagged integrase (1 μM final concentration) and an oligodeoxynucleotide mimicking the IN ELISA oligonucleotide substrate (30 nM final concentration). Counterscreens with JPO2 or PogZ, respectively, were essentially performed as described previously. Expression and purification of recombinant proteins: His6-tagged HIV-1 integrase, 3xflag-tagged LEDGF/p75, MBP-JPO2 and MBP-PogZ were purified for AlphaScreen applications as described previously.
A general note: In Alpha technology, singlet oxygen from a donor bead excites a nearby acceptor bead.

Another data set deals with MT-4 cells. In words: Cytotoxicity in mock-infected MT-4 cells (MTT). In kind it is cell-based. As to the method: (§1) A rapid and automated assay procedure was used for the in vitro evaluation of anti-HIV agents. An HTLV-1 transformed T4-cell line MT-4, which was previously shown to be highly susceptible to and permissive for HIV infection, served as the target cell line. Inhibition of the HIV-induced cytopathogenic effect was used as the end point. The viability of both HIV-and mock-infected cells was assessed spectrophotometrically via in situ reduction of 3-(4,5-dimethylthiazol-2-yl)-2,5-diphenyltetrazolium bromide (MTT). […] The percent protection achieved by the compound in HIV-infected cells was calculated by the following formula: […]
(§2) whereby (ODT)HIV is the optical density measured with a given concentration of the test compound in HIV-infected cells; (ODC)HIV is the optical density measured for the control untreated HIV-infected cells; (ODC)MOCK is the optical density measured for the control untreated mock-infected cells; all optical density values were determined at 540 nm. […] The ratio of CC50 to EC50 was defined as the selectivity index (SI).

The subject of another data set is HIV. In words: microbe, parasite or virus in culture. In kind it is cell-based. As to the method: A rapid and automated assay procedure was used for the in vitro evaluation of anti-HIV agents. An HTLV-1 transformed T4-cell line MT-4, which was previously shown to be highly susceptible to and permissive for HIV infection, served as the target cell line. Inhibition of the HIV-induced cytopathogenic effect was used as the end point. The viability of both HIV-and mock-infected cells was assessed spectrophotometrically via in situ reduction of 3-(4,5-dimethylthiazol-2-yl)-2,5-diphenyltetrazolium bromide (MTT). The 50% cytotoxic concentration (CC50 in μg/ml) was defined as the concentration of compound that reduced the absorbance of the mock-infected control sample by 50%. The percent protection achieved by the compound in HIV-infected cells was calculated by the following formula: […]
whereby (ODT)HIV is the optical density measured with a given concentration of the test compound in HIV-infected cells; (ODC)HIV is the optical density measured for the control untreated HIV-infected cells; (ODC)MOCK is the optical density measured for the control untreated mock-infected cells; all optical density values were determined at 540 nm. The dose achieving 50% protection according to the above formula was defined as the 50% inhibitory concentration (EC50 in μg/ml or μM). The ratio of CC50 to EC50 was defined as the selectivity index (SI). […] Examples of inhibition of cell proliferation by particular compounds of the invention can be found by looking at the respective CC50 values in the MT-4 cell line. Cells: MT-4 cells (Miyoshi et al., 1982) were grown and maintained in RPMI 1640medium supplemented with 10% heat-inactivated fetal calf serum, 2 mM 1-glutamine, 0.1% sodium bicarbonate, and 20æg of gentamicin per ml.
Viruses: The HIV-1 (NL4.3) strain (Adachi et al., 1986) is a molecular clone obtained from the National Institutes of Health (Bethesda, Md.). The HIV-2 (ROD) (Barr, -Sinoussi et al., 1983) stock was obtained from culture supernatant of HIV-2 infected cell lines.

Data set [2] in a line: Cytotoxicity in mock-infected MT-4 cells (MTT). To be noted: human, mock-infected MT-4 cells. In kind it is cell-based. As to the method:
as §1, §2

Setting [3] is: mock-infected MT-4 cells, read-out: CC50.
Where [4] appears, read: 50% protection of HIV-infected MT-4 cells, read-out: EC50.
[5] abbreviates: Human immunodeficiency virus 1, MT4, 50% protection of HIV-infected MT-4 cells, read-out: EC50.

In the case of “2-[2-tert-butyl-7-(2-hydroxy-4-methylphenyl)-5-methylpyrazolo[1,5-a]pyrimidin-6-yl]acetic acid [CPD-117]”, the “Alpha screen % (100 μM)” value in data set [1] was determined as 95%. Further, the cytotoxic concentration (CC50) in the data set on MT-4 cells (setting [3]) amounted to 116 µM. The EC50 in the data set on HIV (setting [4]) is 2.06 µM.
Turning to `CCCC(C(=O)O)c1c(C)nc2cc(C(C)(C)C)nn2c1-c1ccc(F)cc1F` (stereo not drawn) [CPD-91, 2-(2-tert-butyl-7-(2,4-difluorophenyl)-5-methylpyrazolo[1,5-a]pyrimidin-6-yl)pentanoic acid], the “Alpha screen % (100 μM)” value in data set [1] is recorded as 90%. The compound also had a CC50 in data set [2] of 85.5 µM. In the data set on HIV (setting [5]), the EC50 came out at 15.7 µM.
For “Ethyl 2-(2-benzyl-5-methyl-7-p-tolyl-[1,2,4]-triazolo[1,5-a]pyrimidin-6-yl)pentanoate [CPD-123]”, in the data set on MT-4 cells, the midpoint of cytotoxicity, the CC50, lay at 126 µM. Besides, in the data set with HIV (setting [4]), the EC50 was found to be 26.1 µM.
Regarding `CCCC(C(=O)O)c1c(C)nc2cc(C(C)(C)C)nn2c1-c1ccc(OC)cc1F` (stereo not drawn) [CPD-95, 2-(2-tert-butyl-7-(2-fluoro-4-methoxyphenyl)-5-methylpyrazolo[1,5-a]pyrimidin-6-yl)pentanoic acid], in data set [1], the “Alpha screen % (100 μM)” value was 83%. Also, in data set [2], the midpoint of cytotoxicity, the CC50, lay at 115 µM. Further, the EC50 in the data set with HIV (setting [5]) came to 7.48 µM.
The corresponding values for `CCCC(C(=O)O)c1c(C)nc2cc(C(C)(C)C)nn2c1-c1ccc(C)cc1F` (stereo not drawn) [CPD-80, 2-(2-tert-butyl-7-(2-fluoro-4-methylphenyl)-5-methylpyrazolo[1,5-a]pyrimidin-6-yl)pentanoic acid] are 75%, 192 µM and 4.08 µM.
As for `CCCC(C(=O)O)c1c(C)nc2c(-c3ccccc3)c(C(C)(C)C)nn2c1-c1ccc(C)cc1` (stereo not drawn) [CPD-100, 2-(2-tert-butyl-5-methyl-3-phenyl-7-p-tolylpyrazolo[1,5-a]pyrimidin-6-yl)pentanoic acid], in data set [1], the “Alpha screen % (100 μM)” value was determined as 92%. Also, the CC50 in data set [2] stood at 23 µM. Moreover, the concentration giving a half-maximal response (EC50) with HIV (setting [5]) worked out at 6.24 µM.
For “2-[2-tert-butyl-7-(1,2-dihydroacenaphthylen-5-yl)-5-methylpyrazolo[1,5-a]pyrimidin-6-yl]acetic acid [CPD-112]”, in data set [1], the “Alpha screen % (100 μM)” value was 93%. Further, in the data set with MT-4 cells (setting [3]), the CC50 was 59 µM.
On to `COCCC(C(=O)O)c1c(C)nc2cc(C(C)(C)C)nn2c1-c1ccc(C)cc1` (stereo not drawn) [CPD-88, 2-(2-tert-butyl-7-p-tolyl-5-methylpyrazolo[1,5-a]pyrimidin-6-yl)-4-methoxybutanoic acid], for which, in data set [1], the “Alpha screen % (100 μM)” value is on record as 44%. Besides, in data set [2], the CC50 was greater than 250 µM. In addition, in the data set on HIV (setting [5]), the EC50 is 38 µM.
On to `CCCC(C(=O)O)c1c(C)nc2cc(C(C)(C)C)nn2c1-c1ccccc1` (stereo not drawn) [CPD-58, 2-(2-tert-butyl-5-methyl-7-phenylpyrazolo[1,5-a]pyrimidin-6-yl)pentanoic acid], for which the “Alpha screen % (100 μM)” value in data set [1] turned out to be 77%. Moreover, half-maximal cytotoxicity in data set [2] (CC50) was put at 121 µM. Besides, the EC50 in the data set with HIV (setting [5]) was found to be 27.3 µM.
In the case of `CCCC(C(=O)O)c1c(C)nc2cc(C(C)(C)C)nn2c1-c1ccc2cc[nH]c2c1` (stereo not drawn) [CPD-65, 2-(2-tert-butyl-7-(1H-indol-6-yl)-5-methylpyrazolo[1,5-a]pyrimidin-6-yl)pentanoic acid], in data set [1], the “Alpha screen % (100 μM)” value is recorded as 30%. Moreover, in data set [2], the CC50 was 46.5 µM. In the data set on HIV (Human immunodeficiency virus 1, MT4), this compound yielded an EC50 of 5.69 µM.
Consider “2-[2-tert-butyl-7-(1,2-dihydroacenaphthylen-5-yl)-5-methylpyrazolo[1,5-a]pyrimidin-6-yl]acetic acid [CPD-111]”, for which the “Alpha screen % (100 μM)” value in data set [1] came out at 89%. Also, the CC50 in the data set with MT-4 cells (setting [3]) was determined as 50 µM.
As to `CCCC(C(=O)O)c1c(C)nc2cc(C(C)(C)C)nn2c1-c1ccc(C)c(C)c1` (stereo not drawn) [CPD-70, 2-(2-tert-butyl-7-(3,4-dimethylphenyl)-5-methylpyrazolo[1,5-a]pyrimidin-6-yl)pentanoic acid], the “Alpha screen % (100 μM)” value in data set [1] is reported as 93%. For the same compound, the CC50 in data set [2] was greater than 125 µM. The EC50 in the data set on HIV (setting [5]) stood at 72.1 µM.
On to `CCCC(C(=O)O)c1c(C)nc2cc(C(C)(C)C)nn2c1-c1ccc2c(c1)CCO2` (stereo not drawn) [CPD-68, 2-(2-tert-butyl-7-(2,3-dihydrobenzofuran-5-yl)-5-methylpyrazolo[1,5-a]pyrimidin-6-yl)pentanoic acid], for which the “Alpha screen % (100 μM)” value in data set [1] worked out at 93%. Moreover, the CC50 in data set [2] was determined as 101 µM. Besides, in the data set on HIV (setting [5]), the EC50 was 6.42 µM.
Regarding `CCCC(C(=O)O)c1c(C)nc2cc(-c3ccco3)nn2c1-c1ccc(C)cc1` (stereo not drawn) [CPD-78, 2-(2-(furan-2-yl)-5-methyl-7-p-tolylpyrazolo[1,5-a]pyrimidin-6-yl)pentanoic acid], the “Alpha screen % (100 μM)” value in data set [1] is listed as 83%. This compound yielded a CC50 in data set [2] of 127 µM. For the same compound, the EC50 in the data set on HIV (setting [5]) amounted to 21.2 µM.
`CCCC(C(=O)O)c1c(C)nc2c(C)c(C(C)(C)C)nn2c1-c1ccc(C)cc1` (stereo not drawn) [CPD-99, 2-(2-tert-butyl-3,5-dimethyl-7-p-tolylpyrazolo[1,5-a]pyrimidin-6-yl)pentanoic acid]: the “Alpha screen % (100 μM)” value in data set [1] is recorded as 81%. In data set [2], this compound gave a CC50 of 34 µM. Also, the EC50 with HIV (setting [5]) was found to be 1.01 µM.
With `CCCC(C(=O)O)c1c(C)nc2cc(C(C)(C)C)nn2c1-c1ccc(C)cc1` (stereo not drawn) [CPD-59, 2-(2-tert-butyl-5-methyl-7-p-tolylpyrazolo[1,5-a]pyrimidin-6-yl)pentanoic acid], in data set [1], the “Alpha screen % (100 μM)” value is given as 92%. The compound further showed a CC50 in data set [2] greater than 250 µM. The EC50 in the data set with HIV (setting [5]) came out at 14.3 µM.
`CCCC(C(=O)O)c1c(C)nc2cc(C(C)(C)C)nn2c1-c1ccc(CC)cc1` (stereo not drawn) [CPD-71, 2-(2-tert-butyl-7-(4-ethylphenyl)-5-methylpyrazolo[1,5-a]pyrimidin-6-yl)pentanoic acid]: the “Alpha screen % (100 μM)” value in data set [1] is recorded as 74%. In data set [2], this compound registered a CC50 of 73 µM. For the same compound, the EC50 in the data set with HIV (setting [5]) came out at 2.8 µM.

One may read the CC50 as the concentration giving 50% cytotoxicity. The EC50 is the concentration giving half of the maximal effect.
